Laboratory results as given in PubChem BioAssay (NCI).
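Growth conditions: 96-well plates. Treatment: test compound, 48 hours, 5 concentrations. Analysis: linear interpolation between bracketing concentrations; unreached endpoints set to highest concentration. GI50 marks 50% less growth. TGI: total growth inhibition.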

Key:
Experiment in all cases: NCI tumour cell line growth inhibition, 48 h; in the data active = GI50 below about 0.43 µM; inactive = the rest
786-0 renal = system: 786-0 renal
A498 renal = system: A498 renal
A549 NSCLC = system: A549 NSCLC
ACHN renal = system: ACHN renal
BT-549 breast = system: BT-549 breast
CAKI-1 renal = system: CAKI-1 renal
CCRF-CEM leukemia = system: CCRF-CEM leukemia
COLO 205 colon = system: COLO 205 colon
DU-145 prostate = system: DU-145 prostate
HCC-2998 colon = system: HCC-2998 colon
HCT-116 colon = system: HCT-116 colon
HCT-15 colon = system: HCT-15 colon
HL-60(TB) leukemia = system: HL-60(TB) leukemia
HOP-62 NSCLC = system: HOP-62 NSCLC
HOP-92 NSCLC = system: HOP-92 NSCLC
HS 578T breast = system: HS 578T breast
HT29 colon = system: HT29 colon
IGROV1 ovarian = system: IGROV1 ovarian
K-562 leukemia = system: K-562 leukemia
KM12 colon = system: KM12 colon
LOX IMVI melanoma = system: LOX IMVI melanoma
M14 melanoma = system: M14 melanoma
MALME-3M melanoma = system: MALME-3M melanoma
MCF7 breast = system: MCF7 breast
MDA-MB-231 breast = system: MDA-MB-231 breast
MDA-MB-435 = system: MDA-MB-435
MOLT-4 leukemia = system: MOLT-4 leukemia
NCI-H226 lung = system: NCI-H226 lung
NCI-H23 lung = system: NCI-H23 lung
NCI-H460 lung = system: NCI-H460 lung
NCI-H522 lung = system: NCI-H522 lung
NCI/ADR-RES ovarian = system: NCI/ADR-RES ovarian
OVCAR-3 ovarian = system: OVCAR-3 ovarian
OVCAR-4 ovarian = system: OVCAR-4 ovarian
OVCAR-5 ovarian = system: OVCAR-5 ovarian
OVCAR-8 ovarian = system: OVCAR-8 ovarian
PC-3 prostate = system: PC-3 prostate
RPMI-8226 leukemia = system: RPMI-8226 leukemia
RXF 393 renal = system: RXF 393 renal
SF-268 CNS = system: SF-268 CNS
SF-295 CNS = system: SF-295 CNS
SF-539 CNS = system: SF-539 CNS
SK-MEL-2 melanoma = system: SK-MEL-2 melanoma
SK-MEL-28 melanoma = system: SK-MEL-28 melanoma
SK-MEL-5 melanoma = system: SK-MEL-5 melanoma
SK-OV-3 ovarian = system: SK-OV-3 ovarian
SN12C renal = system: SN12C renal
SNB-19 CNS = system: SNB-19 CNS
SNB-75 CNS = system: SNB-75 CNS
SR leukemia = system: SR leukemia
SW-620 colon = system: SW-620 colon
T-47D breast = system: T-47D breast
U251 CNS = system: U251 CNS
UACC-257 melanoma = system: UACC-257 melanoma
UACC-62 melanoma = system: UACC-62 melanoma
UO-31 renal = system: UO-31 renal
EKVX NSCLC = system: EKVX NSCLC
TK-10 renal = system: TK-10 renal

O=C1NC(=NCCc2ccc(Cl)cc2)S/C1=C\c1ccc2ncccc2c1
> 21.6 µM: TGI (SNB-75 CNS)
inactive: GI50 (786-0 renal) 14.3 µM | GI50 (A498 renal) 13.8 µM | GI50 (A549 NSCLC) 15 µM | GI50 (ACHN renal) 24.6 µM | GI50 (BT-549 breast) 13.9 µM | GI50 (CAKI-1 renal) > 19.5 µM | GI50 (CCRF-CEM leukemia) 12.5 µM | GI50 (COLO 205 colon) 15.3 µM | GI50 (DU-145 prostate) 24.4 µM | GI50 (HCC-2998 colon) > 25 µM | GI50 (HCT-116 colon) 9.14 µM | GI50 (HCT-15 colon) 12.9 µM | GI50 (HL-60(TB) leukemia) 8.69 µM | GI50 (HOP-62 NSCLC) 14.3 µM | GI50 (HOP-92 NSCLC) 7.32 µM | GI50 (HS 578T breast) 9.77 µM | GI50 (HT29 colon) > 13 µM | GI50 (IGROV1 ovarian) 17.6 µM | GI50 (K-562 leukemia) > 25 µM | GI50 (KM12 colon) > 23 µM | GI50 (LOX IMVI melanoma) > 20.9 µM | GI50 (M14 melanoma) 25 µM | GI50 (MALME-3M melanoma) > 25 µM | GI50 (MCF7 breast) 10.2 µM | GI50 (MDA-MB-231 breast) > 25 µM | GI50 (MDA-MB-435) 10 µM | GI50 (MOLT-4 leukemia) 18.8 µM | GI50 (NCI-H226 lung) > 25 µM | GI50 (NCI-H23 lung) 23.3 µM | GI50 (NCI-H460 lung) 17.8 µM | GI50 (NCI-H522 lung) 3.41 µM | GI50 (NCI/ADR-RES ovarian) 19.5 µM | GI50 (OVCAR-3 ovarian) > 25 µM | GI50 (OVCAR-4 ovarian) 8.94 µM | GI50 (OVCAR-5 ovarian) > 25 µM | GI50 (OVCAR-8 ovarian) 12.9 µM | GI50 (PC-3 prostate) > 25 µM | GI50 (RPMI-8226 leukemia) > 23 µM | GI50 (RXF 393 renal) 11 µM | GI50 (SF-268 CNS) 11.7 µM | GI50 (SF-295 CNS) 24.4 µM | GI50 (SF-539 CNS) 15.9 µM | GI50 (SK-MEL-2 melanoma) 8.28 µM | GI50 (SK-MEL-28 melanoma) > 25 µM | GI50 (SK-MEL-5 melanoma) 15.8 µM | GI50 (SK-OV-3 ovarian) 17.5 µM | GI50 (SN12C renal) > 25 µM | GI50 (SNB-19 CNS) > 25 µM | GI50 (SNB-75 CNS) 6.77 µM | GI50 (SR leukemia) 6.92 µM | GI50 (SW-620 colon) 14.2 µM | GI50 (T-47D breast) 18.1 µM | GI50 (U251 CNS) 20.8 µM | GI50 (UACC-257 melanoma) > 25 µM | GI50 (UACC-62 melanoma) 17.4 µM | GI50 (UO-31 renal) > 18.9 µM
> 25 µM: TGI (786-0 renal) | TGI (A498 renal) | TGI (A549 NSCLC) | TGI (ACHN renal) | TGI (BT-549 breast) | TGI (CAKI-1 renal) | TGI (CCRF-CEM leukemia) | TGI (COLO 205 colon) | TGI (DU-145 prostate) | TGI (HCC-2998 colon) | TGI (HCT-116 colon) | TGI (HCT-15 colon) | TGI (HL-60(TB) leukemia) | TGI (HOP-62 NSCLC) | TGI (HOP-92 NSCLC) | TGI (HS 578T breast) | TGI (HT29 colon) | TGI (IGROV1 ovarian) | TGI (K-562 leukemia) | TGI (KM12 colon) | TGI (LOX IMVI melanoma) | TGI (M14 melanoma) | TGI (MALME-3M melanoma) | TGI (MCF7 breast) | TGI (MDA-MB-231 breast) | TGI (MDA-MB-435) | TGI (MOLT-4 leukemia) | TGI (NCI-H226 lung) | TGI (NCI-H23 lung) | TGI (NCI-H460 lung) | TGI (NCI/ADR-RES ovarian) | TGI (OVCAR-3 ovarian) | TGI (OVCAR-4 ovarian) | TGI (OVCAR-5 ovarian) | TGI (OVCAR-8 ovarian) | TGI (PC-3 prostate) | TGI (RPMI-8226 leukemia) | TGI (RXF 393 renal) | TGI (SF-268 CNS) | TGI (SF-295 CNS) | TGI (SF-539 CNS) | TGI (SK-MEL-2 melanoma) | TGI (SK-MEL-28 melanoma) | TGI (SK-MEL-5 melanoma) | TGI (SK-OV-3 ovarian) | TGI (SN12C renal) | TGI (SNB-19 CNS) | TGI (SR leukemia) | TGI (SW-620 colon) | TGI (T-47D breast) | TGI (U251 CNS) | TGI (UACC-257 melanoma) | TGI (UACC-62 melanoma) | TGI (UO-31 renal)
> 16 µM: TGI (NCI-H522 lung)

O=S(=O)(NC1=NCCN1C(=S)SN1CCn2c1nsc2=S)c1ccc(Cl)cc1
13.6 µM: TGI (UACC-62 melanoma)
38.6 µM: TGI (NCI-H460 lung)
23.6 µM: TGI (HCC-2998 colon)
37.8 µM: TGI (A549 NSCLC)
21.7 µM: TGI (MOLT-4 leukemia) | TGI (SK-MEL-5 melanoma)
23.4 µM: TGI (IGROV1 ovarian)
29.4 µM: TGI (UACC-257 melanoma)
36.5 µM: TGI (OVCAR-5 ovarian)
28 µM: TGI (SF-268 CNS)
20.7 µM: TGI (NCI-H226 lung) | TGI (SK-MEL-28 melanoma)
30.6 µM: TGI (EKVX NSCLC)
> 100 µM: TGI (HT29 colon) | TGI (K-562 leukemia) | TGI (OVCAR-8 ovarian) | TGI (RPMI-8226 leukemia)
15.7 µM: TGI (LOX IMVI melanoma)
27.7 µM: TGI (CAKI-1 renal)
30.9 µM: TGI (DU-145 prostate)
14.8 µM: TGI (COLO 205 colon)
75.2 µM: TGI (HS 578T breast)
6.48 µM: TGI (BT-549 breast)
25.6 µM: TGI (TK-10 renal)
32.6 µM: TGI (NCI-H23 lung)
60.8 µM: TGI (NCI/ADR-RES ovarian)
3.12 µM: TGI (SF-539 CNS)
25.2 µM: TGI (HOP-92 NSCLC)
28.2 µM: TGI (HCT-15 colon)
21.1 µM: TGI (HCT-116 colon)
6.51 µM: TGI (SR leukemia)
inactive: GI50 (786-0 renal) 16.6 µM | GI50 (A498 renal) 17.4 µM | GI50 (A549 NSCLC) 12.8 µM | GI50 (ACHN renal) 6.05 µM | GI50 (BT-549 breast) 2.28 µM | GI50 (CAKI-1 renal) 6.49 µM | GI50 (COLO 205 colon) 4.36 µM | GI50 (DU-145 prostate) 7.9 µM | GI50 (EKVX NSCLC) 13.2 µM | GI50 (HCC-2998 colon) 11 µM | GI50 (HCT-116 colon) 5.15 µM | GI50 (HCT-15 colon) 11.9 µM | GI50 (HOP-62 NSCLC) 19.5 µM | GI50 (HOP-92 NSCLC) 11.4 µM | GI50 (HS 578T breast) 14 µM | GI50 (HT29 colon) 7.34 µM | GI50 (IGROV1 ovarian) 10.2 µM | GI50 (K-562 leukemia) 5.21 µM | GI50 (KM12 colon) 15.9 µM | GI50 (LOX IMVI melanoma) 3.84 µM | GI50 (M14 melanoma) 12.9 µM | GI50 (MALME-3M melanoma) 4.75 µM | GI50 (MCF7 breast) 2.78 µM | GI50 (MDA-MB-231 breast) 4.06 µM | GI50 (MDA-MB-435) 3.02 µM | GI50 (MOLT-4 leukemia) 3.56 µM | GI50 (NCI-H226 lung) 5.77 µM | GI50 (NCI-H23 lung) 14.4 µM | GI50 (NCI-H460 lung) 10.2 µM | GI50 (NCI-H522 lung) 4.74 µM | GI50 (NCI/ADR-RES ovarian) 23.1 µM | GI50 (OVCAR-3 ovarian) 2.54 µM | GI50 (OVCAR-4 ovarian) 9.6 µM | GI50 (OVCAR-5 ovarian) 17.9 µM | GI50 (OVCAR-8 ovarian) 7.13 µM | GI50 (PC-3 prostate) 7.54 µM | GI50 (RPMI-8226 leukemia) 4.33 µM | GI50 (RXF 393 renal) 3.09 µM | GI50 (SF-268 CNS) 6.5 µM | GI50 (SF-295 CNS) 16.7 µM | GI50 (SF-539 CNS) 1.47 µM | GI50 (SK-MEL-2 melanoma) 5.93 µM | GI50 (SK-MEL-28 melanoma) 4.85 µM | GI50 (SK-MEL-5 melanoma) 8.99 µM | GI50 (SN12C renal) 8.56 µM | GI50 (SNB-19 CNS) 14.5 µM | GI50 (SNB-75 CNS) 12.3 µM | GI50 (SR leukemia) 2.4 µM | GI50 (SW-620 colon) 4.42 µM | GI50 (T-47D breast) 5.38 µM | GI50 (TK-10 renal) 12.3 µM | GI50 (U251 CNS) 10.9 µM | GI50 (UACC-257 melanoma) 10.8 µM | GI50 (UACC-62 melanoma) 3.68 µM | GI50 (UO-31 renal) 2.28 µM
34.8 µM: TGI (SF-295 CNS)
33.6 µM: TGI (KM12 colon)
24.4 µM: TGI (U251 CNS)
18.1 µM: TGI (MALME-3M melanoma)
22.1 µM: TGI (PC-3 prostate)
22.5 µM: TGI (SN12C renal)
22.7 µM: TGI (SK-MEL-2 melanoma)
17.9 µM: TGI (SW-620 colon)
34.4 µM: TGI (RXF 393 renal)
44.2 µM: TGI (OVCAR-4 ovarian)
35.6 µM: TGI (SNB-75 CNS)
23.3 µM: TGI (T-47D breast)
36.4 µM: TGI (SNB-19 CNS)
32.4 µM: TGI (786-0 renal)
18.6 µM: TGI (ACHN renal)
10.5 µM: TGI (MDA-MB-435)
19.4 µM: TGI (MDA-MB-231 breast)
18.4 µM: TGI (NCI-H522 lung)
32.5 µM: TGI (M14 melanoma)
17.1 µM: TGI (MCF7 breast)
5.92 µM: TGI (UO-31 renal)
41 µM: TGI (HOP-62 NSCLC)
12.2 µM: TGI (OVCAR-3 ovarian)
42.2 µM: TGI (A498 renal)
